Test results published in ChEMBL document CHEMBL1201862, “PubChem BioAssay data set” (2004).
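Following 48 hours of exposure in 96-well plates, responses at five concentrations were used to interpolate endpoints linearly. At the GI50, growth is halved.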 Calls of active or inactive are those of the source. No stated cut-off is given here; in the data, active = GI50 up to about 1.1 µM and inactive = higher.

Experiments:
Assay in all cases: NCI-60 cell line screen, 48 h
[1] = system: DMS-273
[2] = system: NCI-H460
[3] = system: SK-OV-3
[4] = system: MOLT-4
[5] = system: A498
[6] = system: DLD-1
[7] = system: IGROV-1
[8] = system: HOP-92
[9] = system: UACC-257
[10] = system: SK-MEL-5
[11] = system: HOP-62
[12] = system: SR
[13] = system: SF-295
[14] = system: CAKI-1
[15] = system: ACHN
[16] = system: HOP-18
[17] = system: UO-31
[18] = system: RPMI-8226
[19] = system: SNB-19
[20] = system: A549
[21] = system: HCT-15
[22] = system: MDA-MB-231
[23] = system: NCI/ADR-RES
[24] = system: U-251
[25] = system: M19-MEL
[26] = system: SF-539
[27] = system: HT-29
[28] = system: SF-268
[29] = system: SNB-75
[30] = system: OVCAR-3
[31] = system: 786-0
[32] = system: NCI-H23
[33] = system: MDA-N
[34] = system: DMS-114
[35] = system: PC-3
[36] = system: BT-549
[37] = system: LOX IMVI
[38] = system: NCI-H226
[39] = system: SK-MEL-2
[40] = system: RXF 393
[41] = system: HL-60
[42] = system: COLO 205
[43] = system: HCC 2998
[44] = system: OVCAR-4
[45] = system: SK-MEL-28
[46] = system: XF498
[47] = system: M14
[48] = system: CCRF-CEM
[49] = system: T47D
[50] = system: Malme-3M
[51] = system: OVCAR-5
[52] = system: UACC-62
[53] = system: SW-620
[54] = system: K562
[55] = system: KM12
[56] = system: HCT-116
[57] = system: SN12C
[58] = system: KM-20L2
[59] = system: MDA-MB-435
[60] = system: SNB-78
[61] = system: MCF7
[62] = system: DU-145
[63] = system: Hs-578T
[64] = system: OVCAR-8
[65] = system: TK-10
[66] = system: EKVX
[67] = system: LXFL 529

## COc1cc(NCc2ccc3nc(N)nc(N)c3c2C)cc(OC)c1OC
[1]
  GI50: 0.025 µM (active)
[2]
  GI50: 0.025 µM (active)
[3]
  GI50: 2.84 µM (inactive)
[4]
  GI50: 0.025 µM (active)
[5]
  GI50: 2.39 µM (inactive)
[6]
  GI50: 0.0253 µM (active)
[7]
  GI50: 0.0316 µM (active)
[8]
  GI50: 0.75 µM (active)
[9]
  GI50: 0.14 µM (active)
[10]
  GI50: 28.9 nM (active)
[11]
  GI50: 0.0286 µM (active)
[12]
  GI50: 0.359 nM (active)
[13]
  GI50: 0.0308 µM (active)
[14]
  GI50: 194 nM (active)
[15]
  GI50: 0.000395 µM (active)
[16]
  GI50: 7.29 µM (inactive)
[17]
  GI50: 1.05 µM (active)
[18]
  GI50: 0.0562 µM (active)
[19]
  GI50: 0.0597 µM (active)
[20]
  GI50: 0.0407 µM (active)
[21]
  GI50: 25 nM
[22]
  GI50: 4.03 µM (inactive)
[23]
  GI50: 2.74 µM (inactive)
[24]
  GI50: 0.0379 µM (active)
[25]
  GI50: 0.326 µM (active)
[26]
  GI50: 26.9 nM (active)
[27]
  GI50: 0.0267 µM (active)
[28]
  GI50: 0.0258 µM (active)
[29]
  GI50: 4.37 µM (inactive)
[30]
  GI50: 0.288 µM (active)
[31]
  GI50: 0.00106 µM (active)
[32]
  GI50: 0.0453 µM (active)
[33]
  GI50: 0.2 nM (active)
[34]
  GI50: 0.025 µM (active)
[35]
  GI50: 0.383 nM (active)
[36]
  GI50: 685 nM (active)
[37]
  GI50: 0.025 µM (active)
[38]
  GI50: 11.4 µM (inactive)
[39]
  GI50: 17.9 µM (inactive)
[40]
  GI50: 2.15 µM (inactive)
[41]
  GI50: 0.043 µM (active)
[42]
  GI50: 1.07 µM (active)
[43]
  GI50: 0.109 µM (active)
[44]
  GI50: 22.4 µM (inactive)
[45]
  GI50: 0.313 µM (active)
[46]
  GI50: 2.57 µM (inactive)
[47]
  GI50: 0.24 nM (active)
[48]
  GI50: 0.025 µM (active)
[49]
  GI50: 65.8 nM (active)
[50]
  GI50: 1.55 µM (inactive)
[51]
  GI50: 1.85 µM (inactive)
[52]
  GI50: 25 nM (active)
[53]
  GI50: 0.025 µM (active)
[54]
  GI50: 0.038 µM (active)
[55]
  GI50: 0.0478 µM (active)
[56]
  GI50: 0.0352 µM (active)
[57]
  GI50: 31.6 nM (active)
[58]
  GI50: 0.0347 µM (active)
[59]
  GI50: 36.5 nM (active)
[60]
  GI50: 5.42 µM (inactive)
[61]
  GI50: 30.8 nM (active)
[62]
  GI50: 1.02 nM (active)
[63]
  GI50: 99.3 nM (active)
[64]
  GI50: 0.0262 µM (active)
[65]
  GI50: 0.0105 µM (active)

## Clc1ccc2c(c1)C1C(CO2)C(c2ccccc2)=NN1c1ccccc1 (configuration not stated)
[1]
  GI50: 28.7 µM (inactive)
[2]
  GI50: 36.2 µM (inactive)
[3]
  GI50: > 100 µM (inactive)
[4]
  GI50: 22 µM (inactive)
[5]
  GI50: > 100 µM (inactive)
[6]
  GI50: 35.1 µM (inactive)
[7]
  GI50: 22.9 µM (inactive)
[8]
  GI50: 18.6 µM (inactive)
[9]
  GI50: 49.7 µM (inactive)
[11]
  GI50: 37 µM (inactive)
[66]
  GI50: 11.8 µM (inactive)
[13]
  GI50: 35.6 µM (inactive)
[15]
  GI50: 35.2 µM (inactive)
[16]
  GI50: 1.07 µM (active)
[17]
  GI50: 15 µM (inactive)
[18]
  GI50: 12.4 µM (inactive)
[19]
  GI50: 34.5 µM (inactive)
[20]
  GI50: 32.7 µM (inactive)
[24]
  GI50: 34.8 µM (inactive)
[25]
  GI50: 26.5 µM (inactive)
[27]
  GI50: 76.9 µM (inactive)
[28]
  GI50: 42.5 µM (inactive)
[29]
  GI50: 20.1 µM (inactive)
[30]
  GI50: 23 µM (inactive)
[31]
  GI50: 24.9 µM (inactive)
[32]
  GI50: 33.7 µM (inactive)
[34]
  GI50: 24.6 µM (inactive)
[37]
  GI50: > 10 µM (inactive)
[39]
  GI50: 26.9 µM (inactive)
[40]
  GI50: 24.2 µM (inactive)
[41]
  GI50: 17.3 µM (inactive)
[42]
  GI50: 71.3 µM (inactive)
[43]
  GI50: 43.8 µM (inactive)
[45]
  GI50: 54.1 µM (inactive)
[46]
  GI50: 14.9 µM (inactive)
[48]
  GI50: 24.9 µM (inactive)
[50]
  GI50: 43 µM (inactive)
[51]
  GI50: > 100 µM (inactive)
[53]
  GI50: 39.7 µM (inactive)
[54]
  GI50: 26.2 µM (inactive)
[55]
  GI50: 31.6 µM (inactive)
[56]
  GI50: 16.1 µM (inactive)
[58]
  GI50: 79.6 µM (inactive)
[60]
  GI50: 29.9 µM (inactive)
[67]
  GI50: 29.6 µM (inactive)
[64]
  GI50: 28.6 µM (inactive)
[65]
  GI50: 82.8 µM (inactive)
